# From the OligoGym collection
# Where “and” joins values, the source holds several entries; their conditions need not be identical. Equal values may be shown once. After the bases stand the sugars from the 5' end (letter, count) and the backbone: PS all phosphorothioate, else s phosphorothioate and o phosphodiester by linkage. Methylation of C is not given here. e = 2'-O-(2-methoxyethyl) (MOE); k = constrained ethyl (cEt); d = 2'-deoxy (DNA)
# Target: IRF4
# Settings: ASO
sequence,measurement,setting,value
"GTATTACTCTTAGGCA (sugars k3 d10 k3, PS)",target mRNA inhibition,"MM.1R, 0.0625 µM",13%
same,target mRNA inhibition,"MM.1R, 0.074 µM",15%
same,target mRNA inhibition,"MM.1R, 0.222 µM",7%
same,target mRNA inhibition,"MM.1R, 0.25 µM",24%
same,target mRNA inhibition,"MM.1R, 0.666 µM",21%
same,target mRNA inhibition,"MM.1R, 1 µM",41%
same,target mRNA inhibition,"MM.1R, 2 µM",51%
same,target mRNA inhibition,"MM.1R, 4 µM",69%
same,target mRNA inhibition,"SK-MEL-28, 4 µM",64%
"GTATTTATGCCCTCGC (sugars k3 d10 k3, PS)",target mRNA inhibition,"SK-MEL-28, 4 µM",53%
"GTCAAACCCTACTGGG (sugars k3 d10 k3, PS)",target mRNA inhibition,"SK-MEL-28, 4 µM",31%
"GTCAAACTATAATTGG (sugars k3 d10 k3, PS)",target mRNA inhibition,"SK-MEL-28, 4 µM",61%
"GTCAAAGAGCTTGCAG (sugars k3 d10 k3, PS)",target mRNA inhibition,"SK-MEL-28, 4 µM",44%
"GTCAACATACACATAG (sugars k3 d10 k3, PS)",target mRNA inhibition,"SK-MEL-28, 4 µM",58%
"GTCACAAAGCAATTGA (sugars k3 d10 k3, PS)",target mRNA inhibition,"SK-MEL-28, 4 µM",67%
"GTCATGGGACATTGGT (sugars k3 d10 k3, PS)",target mRNA inhibition,"MM.1R, 1 µM",26%
"GTCCAGGTTGCTGGCG (sugars k3 d10 k3, PS)",target mRNA inhibition,"SK-MEL-28, 4 µM",53%
"GTCCATGGGAGATCCG (sugars k3 d10 k3, PS)",target mRNA inhibition,"SK-MEL-28, 4 µM",52%
"GTCCTGCTTGCCCGCG (sugars k4 d8 k4, PS)",target mRNA inhibition,"SK-MEL-28, 4 µM",14%
"GTCTACATCTACTCCA (sugars k3 d10 k3, PS)",target mRNA inhibition,"SK-MEL-28, 4 µM",38%
"GTCTACTGCTGTACTT (sugars k3 d10 k3, PS)",target mRNA inhibition,"SK-MEL-28, 4 µM",52%
"GTCTCTCACGCAGTGC (sugars k3 d10 k3, PS)",target mRNA inhibition,"SK-MEL-28, 4 µM",50%
"GTCTTAGGTGTTCAAG (sugars k3 d10 k3, PS)",target mRNA inhibition,"SK-MEL-28, 4 µM",56%
"GTGAAACTGAGAGTGC (sugars k3 d10 k3, PS)",target mRNA inhibition,"SK-MEL-28, 4 µM",-20%
"GTGAACATGCCACTCA (sugars k3 d10 k3, PS)",target mRNA inhibition,"SK-MEL-28, 4 µM",62%
"GTGACCCACATAACTC (sugars k3 d10 k3, PS)",target mRNA inhibition,"MM.1R, 1 µM",7%
"GTGACTTAATTCTGGG (sugars k3 d10 k3, PS)",target mRNA inhibition,"SK-MEL-28, 4 µM",51%
"GTGACTTGCATCCATG (sugars k3 d10 k3, PS)",target mRNA inhibition,"MM.1R, 1 µM",62%
"GTGATGTCAGGTTTTC (sugars k2 d9 e3 k2, PS)",target mRNA inhibition,"MM.1R, 1 µM",38%
"GTGATGTCAGGTTTTC (sugars kddddddddddkekek, PS)",target mRNA inhibition,"MM.1R, 1 µM",22%
"GTGCACTCGCGCAAAG (sugars k3 d10 k3, PS)",target mRNA inhibition,"MM.1R, 1 µM",-5%
"GTGCAGTTCCGTAGTC (sugars k3 d10 k3, PS)",target mRNA inhibition,"SK-MEL-28, 4 µM",21%
"GTGCTCTTACAGCCTC (sugars k3 d10 k3, PS)",target mRNA inhibition,"MM.1R, 1 µM",-15%
"GTGGCATCATGTAGTT (sugars k3 d10 k3, PS)",target mRNA inhibition,"SK-MEL-28, 4 µM",27%
"GTGGGAGTCGGAGCTC (sugars k3 d10 k3, PS)",target mRNA inhibition,"SK-MEL-28, 4 µM",17%
"GTGTCTAAAGTCCCAT (sugars kdddddddddkekeke, PS)",target mRNA inhibition,"MM.1R, 1 µM",5%
"GTGTCTAAAGTCCCAT (sugars kkdddddddddekeke, PS)",target mRNA inhibition,"MM.1R, 1 µM",32% and 23%
"GTGTCTAAAGTCCCAT (sugars kkdddddddddkdkdk, PS)",target mRNA inhibition,"MM.1R, 1 µM",20% and 5%
"GTGTGCTTGCCAAGCC (sugars kddddddddddkekek, PS)",target mRNA inhibition,"MM.1R, 1 µM",40% and 23%
"GTGTGCTTGCCAAGCC (sugars kkddddddddddkeke, PS)",target mRNA inhibition,"MM.1R, 1 µM",37% and 47%
"GTGTGCTTGCCAAGCC (sugars kkdddddddddkdkdk, PS)",target mRNA inhibition,"MM.1R, 1 µM",59%
"GTGTGGCTGATCCGGG (sugars k3 d10 k3, PS)",target mRNA inhibition,"SK-MEL-28, 4 µM",27%
"GTGTGTGCACTCGCGC (sugars k3 d10 k3, PS)",target mRNA inhibition,"MM.1R, 1 µM",19%
"GTGTTTGCCATGGTAT (sugars k3 d10 k3, PS)",target mRNA inhibition,"MM.1R, 0.0625 µM",-1%
same,target mRNA inhibition,"MM.1R, 0.25 µM",13%
same,target mRNA inhibition,"MM.1R, 1 µM",57% and 40%
same,target mRNA inhibition,"MM.1R, 4 µM",70%
"GTGTTTGGTGGGAATC (sugars k3 d10 k3, PS)",target mRNA inhibition,"SK-MEL-28, 4 µM",46%
"GTTAAAGGAGTGCAGG (sugars k3 d10 k3, PS)",target mRNA inhibition,"SK-MEL-28, 4 µM",-14%
"GTTAGCTACAAAGAGC (sugars k3 d10 k3, PS)",target mRNA inhibition,"SK-MEL-28, 4 µM",41%
"GTTCAGAAACCCTCAT (sugars k3 d10 k3, PS)",target mRNA inhibition,"SK-MEL-28, 4 µM",13%
"GTTGAAAGAACCAAGC (sugars k3 d10 k3, PS)",target mRNA inhibition,"SK-MEL-28, 4 µM",11%
"GTTGGCACAATTCTCT (sugars k3 d10 k3, PS)",target mRNA inhibition,"MM.1R, 1 µM",22% and 16%
"GTTGGCTGGTCTTTGT (sugars kddddddddddkekek, PS)",target mRNA inhibition,"MM.1R, 1 µM",23%
"GTTGGCTGGTCTTTGT (sugars kkddddddddddkeke, PS)",target mRNA inhibition,"MM.1R, 1 µM",25%
"GTTGGCTGGTCTTTGT (sugars kkdddddddddkdkdk, PS)",target mRNA inhibition,"MM.1R, 1 µM",56%
"GTTGTAAATGAGTCGG (sugars kkdddddddddekeke, PS)",target mRNA inhibition,"MM.1R, 1 µM",48%
"GTTGTAAATGAGTCGG (sugars kkdddddddddkdkdk, PS)",target mRNA inhibition,"MM.1R, 0.074 µM",34%
same,target mRNA inhibition,"MM.1R, 0.222 µM",45%
same,target mRNA inhibition,"MM.1R, 0.666 µM",64%
same,target mRNA inhibition,"MM.1R, 1 µM",58%
same,target mRNA inhibition,"MM.1R, 2 µM",85%
"GTTGTCTGGCTAGCAG (sugars k4 d8 k4, PS)",target mRNA inhibition,"SK-MEL-28, 0.185 µM",6% and 4%
same,target mRNA inhibition,"SK-MEL-28, 4 µM",52%
same,target mRNA inhibition,"SK-MEL-28, 5 µM",42% and 44% and 53%
same,target mRNA inhibition,"SK-MEL-28, 15 µM",62% and 65% and 83%
"GTTTATTTCCTACTCT (sugars k4 d8 k4, PS)",target mRNA inhibition,"SK-MEL-28, 4 µM",44%
